Strand notation (5' to 3'): a small letter for the sugar, then the base; units joined by * are phosphorothioate-linked, units joined directly phosphodiester-linked; [ ] holds rarer units or linkages, { } end groups; capitals alone tell only the bases. e = 2'-O-(2-methoxyethyl) (MOE); [5mC] = 5-methylcytosine; d = 2'-deoxy (DNA)
Key:
Format in all cases: cell-based
[1] = test system: human Factor 7 mRNA; experiment: Antisense inhibition of human Factor 7 with short (14-mer) oligonucleotides in HepB3 cells, electroporation 1,000 nM; settings: electroporation, 1,000 nM antisense oligonucleotide, approximately 24 hours, Factor 7 mRNA relative to untreated control cells
Source text: Short antisense oligonucleotides (shortmers) were designed to target a Factor 7 nucleic acid. The shortmers in Table 17 were designed as 2-10-2 MOE gapmers. The gapmers are 14 nucleotides in length, wherein the central gap segment is comprised of 10 2′-deoxynucleotides and is flanked on both sides (in the 5′ and 3′ directions) by wings comprising 2 nucleotides each. Each nucleotide in the 5′ wing segment and each nucleotide in the 3′ wing segment has a 2′-MOE modification. The internucleoside linkages throughout each gapmer are phosphorothioate (P═S) linkages. All cytidine residues throughout each gapmer are 5-methylcytidines.
Shortmers were evaluated for their ability to reduce human Factor 7 mRNA in HepB3 cells and compared with one 5-10-5 chimeric oligonucleotide from Table 16, ISIS 407939. HepB3 cells at a density of 20,000 cells per well in a 96-well plate were transfected using electroporation with 1,000 nM of antisense oligonucleotide. After a treatment period of approximately 24 hours, RNA was isolated from the cells and Factor 7 mRNA levels were measured by real-time RT-PCR, as described herein. Factor 7 mRNA levels were adjusted according to total RNA content as measured by RIBOGREEN®. Results are presented in Table 17 as percent inhibition of Factor 7 mRNA, relative to untreated control cells. ISIS 407939 is the first oligonucleotide in Table 17 to which the shortmers were compared, and is marked by an asterisk (*).

[2] = test system: human Factor 7 mRNA; experiment: Dose-dependent antisense inhibition of human Factor 7 in HepB3 cells, lipofectin; settings: approximately 16 hours
Procedure: Cells were plated at a density of 4,000 cells per well and treated with lipofectin reagent with 3.125 nM, 6.25 nM, 12.5 nM, 25 nM, 50 nM, and 100 nM concentrations of antisense oligonucleotide, as indicated in Table 3. After a treatment period of approximately 16 hours, RNA was isolated from the cells and Factor 7 mRNA levels were measured by real-time RT-PCR, as described herein. Human Factor 7 primer probe set RTS 2927 (forward sequence: […], incorporated herein as SEQ ID NO: 164; reverse sequence: […], incorporated herein as SEQ ID NO: 165; probe sequence: TGGGTGGTCTCCGCGGCCX, incorporated herein as SEQ ID NO: 166) was used to measure mRNA levels. Factor 7 mRNA levels were adjusted according to total RNA content as measured by RIBOGREEN®. Results are presented as percent inhibition of Factor 7, relative to untreated control cells.
Cells were plated at a density of 4,000 cells per well and transfected using lipofectin reagent with 6.25 nM, 12.5 nM, 25.0 nM, 50.0 nM, and 100.0 nM concentrations of antisense oligonucleotide, as indicated in Table 7. After a treatment period of approximately 16 hours, RNA was isolated from the cells and Factor 7 mRNA levels were measured by real-time RT-PCR, as described herein. Human Factor 7 primer probe set RTS 2927 was used to measure mRNA levels. Factor 7 mRNA levels were adjusted according to total RNA content as measured by RIBOGREEN®. Results are presented as percent inhibition of Factor 7, relative to untreated control cells.
Cells were plated at a density of 4,000 cells per well and transfected using lipofectin reagent with 3.125 nM, 6.25 nM, 12.5 nM, 25 nM, 50 nM, and 100 nM concentrations of antisense oligonucleotide, as specified in Table 14. After a treatment period of approximately 16 hours, RNA was isolated from the cells and Factor 7 mRNA levels were measured by quantitative real-time PCR. Human Factor 7 primer probe set RTS 2927 was used to measure mRNA levels. Factor 7 mRNA levels were adjusted according to total RNA content, as measured by RIBOGREEN®. Results are presented as percent inhibition of Factor 7, relative to untreated control cells.

[3] = test system: human Factor 7 mRNA; experiment: Antisense inhibition of human Factor 7 mRNA in HepB3 cells, 50 nM antisense oligonucleotide, lipofectin; settings: for % Inhibition: lipofectin, approximately 24 hours
In short: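 Seeding density was 4,000 cells per well. Following roughly 24 hours of oligonucleotide treatment, RNA was extracted and Factor 7 message quantified using the RTS 2927 primer probe set. Levels were corrected for RIBOGREEN® total RNA and expressed against untreated controls.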

[4] = 50 nM antisense oligonucleotide, Factor 7 mRNA by real-time RT-PCR (RTS 2927), relative to untreated control
[5] = Table 1, 50 nM, relative to untreated control cells

Substance | % Inhibition [1] | percent inhibition of Factor 7 ([2]; Table 7, 6.25 nM) | percent inhibition of Factor 7 ([2]; Table 7, 12.5 nM) | percent inhibition of Factor 7 ([2]; Table 7, 25.0 nM) | percent inhibition of Factor 7 ([2]; Table 7, 50.0 nM) | percent inhibition of Factor 7 ([2]; Table 7, 100.0 nM) | % Inhibition [3, 4] | % Inhibition (human Factor 7 mRNA levels) ([3]; oligonucleotides targeted to nucleobases 13760 to 13789 of SEQ ID NO: 1 (Table 10)) | percent inhibition of Factor 7 ([2]; Table 3, 3.125 nM) | percent inhibition of Factor 7 ([2]; Table 3, 6.25 nM) | percent inhibition of Factor 7 ([2]; Table 3, 12.5 nM) | percent inhibition of Factor 7 ([2]; Table 3, 25.0 nM) | percent inhibition of Factor 7 ([2]; Table 3, 50.0 nM) | percent inhibition of Factor 7 ([2]; Table 3, 100.0 nM) | % Inhibition [3, 5] | % Inhibition of human Factor 7 mRNA levels ([3]; gapmers targeted to nucleobases 4868 to 4899 of SEQ ID NO: 1, Table 8) | % Inhibition (human Factor 7 mRNA levels) ([3]; oligonucleotides targeted to nucleobases 11830 to 11869 of SEQ ID NO: 1 (Table 9)) | % Inhibition (human Factor 7 mRNA levels) ([3]; oligonucleotides targeted to nucleobases 14707 to 14732 of SEQ ID NO: 1 (Table 11))
435639 (antisense eT*e[5mC]*d[5mC]*dA*dG*dA*dA*d[5mC]*dA*dG*d[5mC]*dT*eT*e[5mC]) [compound 435639] | 31% |  |  |  |  |  |  |  |  |  |  |  |  |  |  |  |  | 
435731 (antisense eG*eT*dG*dA*dG*dA*dG*d[5mC]*dT*dA*dA*dA*e[5mC]*eA) [compound 435731] | 11% |  |  |  |  |  |  |  |  |  |  |  |  |  |  |  |  | 
416446 (antisense eG*eG*eT*e[5mC]*eA*d[5mC]*dT*dG*d[5mC]*dA*dG*dT*dA*d[5mC]*dT*eG*e[5mC]*eT*e[5mC]*eA) [compound 416446] |  | 25% | 24% | 50% | 69% | 64% | 64% |  |  |  |  |  |  |  |  |  |  | 
416455 (antisense e[5mC]*eG*e[5mC]*e[5mC]*eG*dG*d[5mC]*dT*d[5mC]*dT*dG*d[5mC]*dT*d[5mC]*dA*eT*e[5mC]*e[5mC]*e[5mC]*e[5mC]) [compound 416455] |  | 28% | 44% | 64% | 78% | 87% | 72% | 51% |  |  |  |  |  |  |  |  |  | 
407594 (antisense e[5mC]*e[5mC]*eT*eG*e[5mC]*dA*dG*d[5mC]*d[5mC]*dA*dG*dG*d[5mC]*dA*dG*e[5mC]*e[5mC]*e[5mC]*eT*eG) [compound 407594] |  |  |  |  |  |  |  |  | 10% | 34% | 63% | 77% | 84% | 80% | 87% |  |  | 
416508 (antisense e[5mC]*eG*eA*eG*eT*dT*d[5mC]*dT*dG*d[5mC]*dA*dG*dG*dA*dG*e[5mC]*eG*eG*e[5mC]*e[5mC]) [compound 416508] |  | 42% | 51% | 71% | 79% | 89% | 67% |  |  |  |  |  |  |  |  | 67% |  | 
416438 (antisense e[5mC]*eA*eG*eG*eA*dG*d[5mC]*d[5mC]*d[5mC]*d[5mC]*d[5mC]*dA*dT*dT*d[5mC]*eT*eG*eG*e[5mC]*eA) [compound 416438] |  | 11% | 33% | 56% | 75% | 82% | 63% |  |  |  |  |  |  |  |  |  |  | 
416549 (antisense eG*eA*e[5mC]*eA*eA*dT*dG*dG*dT*d[5mC]*dA*dG*dG*dG*d[5mC]*eT*eG*eG*eT*eT) [compound 416549] |  | 38% | 44% | 63% | 73% | 78% | 68% |  |  |  |  |  |  |  |  |  | 69% | 
416507 (antisense eG*eG*eT*eT*eA*d[5mC]*dT*dG*dA*dG*d[5mC]*dG*d[5mC]*dG*dG*eA*eA*eG*eA*eA) [compound 416507] |  | 30% | 53% | 70% | 77% | 72% | 73% |  |  |  |  |  |  |  |  |  |  | 
407910 (antisense eA*eG*eT*e[5mC]*e[5mC]*dT*dT*dG*d[5mC]*dT*dG*d[5mC]*d[5mC]*dA*dT*e[5mC]*e[5mC]*eG*eA*eG) [compound 407910] |  |  |  |  |  |  | 72% |  | 31% | 44% | 69% | 68% | 82% | 89% | 86% |  |  | 
407936 (antisense eG*eG*e[5mC]*eA*eT*dT*d[5mC]*dG*d[5mC]*d[5mC]*dA*d[5mC]*d[5mC]*dA*dT*eG*e[5mC]*eA*eT*eG) [compound 407936] |  |  |  |  |  |  |  |  | 45% | 77% | 79% | 86% | 91% | 90% | 91% |  |  | 
407900 (antisense e[5mC]*e[5mC]*e[5mC]*e[5mC]*eA*d[5mC]*dA*dA*dT*dT*d[5mC]*dG*dG*d[5mC]*d[5mC]*eT*eT*eG*eG*eG) [compound 407900] |  | 18% | 36% | 61% | 82% | 91% | 78% |  | 52% | 58% | 80% | 87% | 94% | 91% | 91% |  |  | 
416477 (antisense e[5mC]*eA*eG*e[5mC]*e[5mC]*dT*dG*dA*dG*dG*d[5mC]*d[5mC]*dA*dG*d[5mC]*eA*eG*eA*eT*e[5mC]) [compound 416477] |  | 21% | 46% | 64% | 78% | 87% | 74% |  |  |  |  |  |  |  |  |  |  | 71%
416449 (antisense eT*eA*eG*eG*eT*dA*dT*dT*dT*dT*dT*d[5mC]*d[5mC]*dA*d[5mC]*eA*eT*eG*eG*eA) [compound 416449] |  | 19% | 33% | 45% | 65% | 85% | 68% |  |  |  |  |  |  |  |  |  |  | 
416472 (antisense e[5mC]*eA*eG*e[5mC]*e[5mC]*dT*dT*dG*dG*d[5mC]*dT*dT*dT*d[5mC]*dT*e[5mC]*eT*e[5mC]*e[5mC]*eA) [compound 416472] |  | 16% | 44% | 64% | 80% | 88% | 76% |  |  |  |  |  |  |  |  |  |  | 
407606 (antisense e[5mC]*eT*eG*eG*eT*d[5mC]*d[5mC]*dT*dT*dG*d[5mC]*dA*dG*dG*dA*eG*e[5mC]*e[5mC]*e[5mC]*e[5mC]) [compound 407606] |  |  |  |  |  |  | 57% |  | 20% | 0% | 49% | 55% | 83% | 84% | 89% |  |  | 
